Results on 10 molecules are retold here after US10611750B2, “Tetrahydroquinoline compositions as bet bromodomain inhibitors” (FORMA Therapeutics, Inc., priority 2013, dated 2020).

For test [1], the target named is T1, BRD4 Bromodomain 1 (BRD4 BD1) (Homo sapiens, UniProt O60885).
T1 construct: 44-168 and BRD4 BD2
Description: AlphaScreen binding assay, BRD4 BD1. Conditions: His-tagged BRD4 BD1 50 nM, biotinylated H4 (1-21) K5/8/12/16 tetra-acetylated peptide 50 nM, compounds listed under IC50 range headings. The method in brief: (§1)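 Compound dilution series were mixed with His-tagged BRD4 bromodomain and biotinylated tetra-acetylated H4 (1-21) peptide at pH 7.3 (BD1 and peptide at 50 nM, BD2 and peptide at 100 nM). Donor and acceptor beads were then added, and plates were equilibrated at least 1 h before reading. IC50 values were fitted with a four-parameter logistic model.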
On the technique in general: Bead proximity is the source of the signal in Alpha formats.

For test [2], the target named is T2, BRD4 Bromodomain 2 (BRD4 BD2) (Homo sapiens, UniProt O60885).
T2 construct: 333-460 were cloned, expressed, and purified to homogeneity
Kind of test: AlphaScreen binding assay, BRD4 BD2. Conditions: His-tagged BRD4 BD2 100 nM, biotinylated H4 (1-21) K5/8/12/16 tetra-acetylated peptide 100 nM, compounds listed under IC50 range headings. The method in brief: as §1

In test [3] the test system is acute myelocytic leukemia (AML) cell line MV4-11. Kind of test: Oncology cell growth assay (3-day proliferation, CellTiter-Glo). The test is classed as cell-based. Conditions: Homo sapiens, MV4-11, 72 h, MV4-11 cells, 3000 cells/well, compounds listed under IC50 range headings, read-out: MV411 IC50 (gIC50, inhibition of proliferation). In outline:
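A 3-day proliferation test used MV4-11 cells seeded at 3000 per well with eight compound concentrations (10 μM top, 3-fold dilution) at 37° C in 5% CO2. CellTiter-Glo luminescence defined viable cell signal. A four-parameter logistic curve against DMSO and background wells gave the gIC50.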
On the technique in general: ATP-based viability assays read luminescence as a measure of living cells.

Take `COC(=O)N1c2ccc(-c3cnn(C4CCNCC4)c3)c(Oc3ccc(Cl)cc3)c2CC[C@@H]1C` [I-159, (S)-methyl 5-(4-chlorophenoxy)-2-methyl-6-(1-(piperidin-4-yl)-1H-pyrazol-4-yl)-3,4-dihydroquinoline-1(2H)-carboxylate]: the IC50 in test [1] was 100 to 1000 nM; in test [2], less than 50 nM; in test [3], less than 500 nM.
On the same counts, the results for `COC(=O)N1c2ccc(-c3cnn(C4CCNCC4)c3)c(Oc3ccccc3Cl)c2CC[C@@H]1C` [I-160, (S)-methyl 5-(2-chlorophenoxy)-2-methyl-6-(1-(piperidin-4-yl)-1H-pyrazol-4-yl)-3,4-dihydroquinoline-1(2H)-carboxylate] are 100 to 1000 nM, less than 50 nM and less than 500 nM.
On the same counts, the results for `COC(=O)N1c2ccc(-c3cnn(C4CCNCC4)c3)c(Oc3ccc(C(N)=O)cc3)c2CC[C@@H]1C` [I-161, (S)-methyl 5-(4-carbamoylphenoxy)-2-methyl-6-(1-(piperidin-4-yl)-1H-pyrazol-4-yl)-3,4-dihydroquinoline-1(2H)-carboxylate] are 100 to 1000 nM, less than 50 nM and greater than 1000 nM.
The matching figures for `COC(=O)N1c2ccc(-c3cnn(C4CCNCC4)c3)c(Oc3ccc(F)c(C#N)c3)c2CC[C@@H]1C` [I-162, (S)-methyl 5-(3-cyano-4-fluorophenoxy)-2-methyl-6-(1-(piperidin-4-yl)-1H-pyrazol-4-yl)-3,4-dihydroquinoline-1(2H)-carboxylate]: 100 to 1000 nM, less than 50 nM and less than 500 nM.
Take `COC(=O)N1c2ccc(-c3cnn(C4CCNCC4)c3)c(Oc3ccc(F)c(Cl)c3)c2CC[C@@H]1C` [I-163, (S)-methyl 5-(3-chloro-4-fluorophenoxy)-2-methyl-6-(1-(piperidin-4-yl)-1H-pyrazol-4-yl)-3,4-dihydroquinoline-1(2H)-carboxylate]: the values for the IC50 in test [1], in test [2] and in test [3] were 100 to 1000 nM, less than 50 nM and less than 500 nM, respectively.
The matching figures for `C[C@H]1CCc2c(ccc(-c3cnn(C4CCNCC4)c3)c2Oc2ccc(F)cc2)N1C(=O)C1CC1` [I-164, (S)-cyclopropyl(5-(4-fluorophenoxy)-2-methyl-6-(1-(piperidin-4-yl)-1H-pyrazol-4-yl)-3,4-dihydroquinolin-1 (2H)-yl)methanone]: 100 to 1000 nM, less than 50 nM and less than 500 nM.
The matching figures for `C[C@H]1CCc2c(ccc(-c3cnn(C4CCNCC4)c3)c2Oc2ccc(Cl)cc2)N1C(=O)C1CC1` [I-166, (S)-(5-(4-chlorophenoxy)-2-methyl-6-(1-(piperidin-4-yl)-1H-pyrazol-4-yl)-3,4-dihydroquinolin-1(2H)-yl)(cyclopropyl)methanone]: 100 to 1000 nM, less than 50 nM and less than 500 nM.
The matching figures for `C[C@H]1CCc2c(ccc(-c3cnn(C4CCNCC4)c3)c2Oc2ccc(C#N)cc2)N1C(=O)C1CC1` [I-167]: 100 to 1000 nM, less than 50 nM and less than 500 nM.
Consider `C[C@H]1CCc2c(ccc(-c3cnn(C4CCNCC4)c3)c2Oc2ccccc2)N1C(=O)C1CC1` [I-168, (S)-cyclopropyl(2-methyl-5-phenoxy-6-(1-(piperidin-4-yl)-1H-pyrazol-4-yl)-3,4-dihydroquinolin-1(2H)-yl)methanone], for which the figures for the IC50 in test [1], in test [2] and in test [3] were 100 to 1000 nM, less than 50 nM and less than 500 nM, respectively.
The matching figures for `C[C@H]1CCc2c(ccc(-c3cnn(C4CCNCC4)c3)c2Oc2ccc(F)c(Cl)c2)N1C(=O)C1CC1` [I-169, (S)-(5-(3-chloro-4-fluorophenoxy)-2-methyl-6-(1-(piperidin-4-yl)-1H-pyrazol-4-yl)-3,4-dihydroquinolin-1(2H)-yl)(cyclopropyl)methanone]: 100 to 1000 nM, less than 50 nM and less than 500 nM.
